# In PMC3038857, “Using Nuclear Receptor Activity to Stratify Hepatocarcinogens” (PLoS ONE, 2011):
# Where two headings read alike, the source gives them in different places.
# Tests used:
# ABCB1 = experiment: CLZD_ABCB1: Change in expression of ABCB1 (primary human hepatocytes); assay type: cell-based; conditions: 24 hr
# Description: (§1) This is a collection of multiplexed gene expression assays focused on Phase I and II xenobiotic metabolizing enzymes and transporters. Human primary cell cultures were treated with chemicals at 5 concentrations (0.004-40 [drawing 42] M) for 6, 24 and 48 hr. Concentration- and time-response profiles of chemicals were measured by the expression of key nuclear receptor target genes, activities of CYP1A enzymes (EROD), and cell morphology. Fourteen gene targets were monitored by quantitative nuclease protection assay including: six representative cytochrome P-450 genes, four hepatic transporters, three Phase II conjugating enzymes, and one endogenous metabolism gene involved in cholesterol synthesis. The target genes associated with nuclear receptor pathways are as follows: [drawing 43] and [drawing 44] with [drawing 45]; [drawing 46] , [drawing 47] , [drawing 48] , [drawing 49] , [drawing 50] and [drawing 51] with [drawing 52]; [drawing 53] , [drawing 54] , [drawing 55] and [drawing 56] with [drawing 57]; [drawing 58] with [drawing 59]; and [drawing 60] with [drawing 61] . Assays were run in primary human hepatocyte cultures by CellzDirect Invitrogen Inc. (Durham, NC), in collaboration with EPA.
# (§2) Multiplexed Gene Expression in Human Primary Hepatocytes: This is a collection of multiplexed gene expression assays focused on Phase I and II metabolic enzymes and transporters. […] Fourteen gene targets were monitored by quantitative nuclease protection assay: six representative cytochrome P450 genes, four hepatic transporters, three Phase II conjugating enzymes, and one endogenous metabolism gene involved in cholesterol synthesis. Cells were exposed at 5 concentrations (0.004-40 µM) for 6, 24 or 48 hr. Gene targets are sentinels for five nuclear receptor signaling pathways: AhR, CAR, PXR, FXR, and PPARα. All gene are associated with nuclear receptor pathways: CYP1A1 and CYP1A2 with AHR; ABCB1, ABCG2, CYP2B6, CYP2C9, CYP2C19 and UGT1A1 with CAR; CYP3A4, GSTA2, SLCO1B1 and SULT2A1 with PXR; HMGCS2 with PPARA; and ABCB11 with FXR. […] Detailed description of the methods, data and analysis methods for this dataset will be presented in a separate publication.
# ABCB11 = experiment: CLZD_ABCB11: Change in expression of ABCB11 (primary human hepatocytes); assay type: cell-based; conditions: 24 hr
# Description: as §1, §2
# CYP1A1 = experiment: CLZD_CYP1A1: Change in expression of CYP1A1 (primary human hepatocytes); assay type: cell-based; conditions: 24 hr
# Summary of the method: (§3)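 Chemicals are tested in human hepatocyte primary cultures over 0.004-40 µM (5 concentrations) for 6, 24 or 48 hr, and concentration- and time-dependent transcript changes are read by quantitative nuclease protection assay.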
# CYP1A2 = experiment: CLZD_CYP1A2: Change in expression of CYP1A2 (primary human hepatocytes); assay type: cell-based; conditions: 24 hr
# Summary of the method: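 Cultured primary human hepatocytes treated with chemicals for 6, 24 or 48 hr across five concentrations spanning 0.004-40 µM, then transcript level measured by quantitative nuclease protection in a multiplexed format.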
# CYP2B6 = experiment: CLZD_CYP2B6: Change in expression of CYP2B6 (primary human hepatocytes); assay type: cell-based; conditions: 24 hr
# Summary of the method: as §3
# Rat Liver [1] = conditions: chronic study, ref ToxRefDB, cited from earlier work
# Rat Liver [2] = conditions: chronic study, ref ToxRefDB, cited from earlier work; remark: listed apart in the source
# Rat Liver [3] = conditions: chronic study, ref ToxRefDB, cited from earlier work; remark: listed apart in the source
# CAR (NR1I3) = target: T1, CAR (NR1I3) (Homo sapiens, UniProt Q14994); experiment: ATG_PBREM_CIS: Factorial reporter gene assay (HepG2); assay type: cell-based; set-up: endogenous in cells; host or cells: HepG2
# T1 sequence (Q14994 1-352): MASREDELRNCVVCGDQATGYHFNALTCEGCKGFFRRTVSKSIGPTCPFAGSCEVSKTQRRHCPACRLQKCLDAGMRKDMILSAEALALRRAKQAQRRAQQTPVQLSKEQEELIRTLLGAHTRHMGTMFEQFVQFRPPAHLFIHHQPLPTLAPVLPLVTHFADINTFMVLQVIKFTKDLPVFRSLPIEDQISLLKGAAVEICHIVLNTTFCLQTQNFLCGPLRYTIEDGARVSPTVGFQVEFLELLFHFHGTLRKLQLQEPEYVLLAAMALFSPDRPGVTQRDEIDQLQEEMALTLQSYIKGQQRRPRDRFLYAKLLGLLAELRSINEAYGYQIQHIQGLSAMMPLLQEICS
# Description: (§4) A multiple reporter transcription unit (MRTU) library consisting of 48 transcription factor binding sites was transfected into the HepG2 human liver hepatoma cell line. In addition to the cis-acting reporter genes (CIS), a modification of the approach was used to generate a trans-system (TRANS) with a mammalian one-hybrid assay consisting of an additional 25 MRTU library reporting the activity of nuclear receptor super-family members. […] These assays were performed by Attagene Inc. (Morrisville NC) under contract to EPA.
# (§5) In addition to the cis-acting reporter genes (CIS), a modification of the approach was used to generate a trans-system (TRANS) with a mammalian one-hybrid assay consisting of an additional 25 MRTU library reporting the activity of nuclear receptor super-family members. […] Chemicals were then tested in the CIS and TRANS assays at seven concentrations starting at the MTC and followed by three-fold serial dilutions. These assays were performed by Attagene Inc. (Morrisville NC) under contract to EPA. Detailed description of the methods, data and analysis methods for this dataset will be presented in a separate publication.
# PXR (NR1I2) = target: T2, PXR (NR1I2) (Homo sapiens, UniProt O75469); experiment: ATG_PXRE_CIS: Factorial reporter gene assay (HepG2); assay type: cell-based; set-up: endogenous in cells; host or cells: HepG2
# T2 sequence (O75469 1-434): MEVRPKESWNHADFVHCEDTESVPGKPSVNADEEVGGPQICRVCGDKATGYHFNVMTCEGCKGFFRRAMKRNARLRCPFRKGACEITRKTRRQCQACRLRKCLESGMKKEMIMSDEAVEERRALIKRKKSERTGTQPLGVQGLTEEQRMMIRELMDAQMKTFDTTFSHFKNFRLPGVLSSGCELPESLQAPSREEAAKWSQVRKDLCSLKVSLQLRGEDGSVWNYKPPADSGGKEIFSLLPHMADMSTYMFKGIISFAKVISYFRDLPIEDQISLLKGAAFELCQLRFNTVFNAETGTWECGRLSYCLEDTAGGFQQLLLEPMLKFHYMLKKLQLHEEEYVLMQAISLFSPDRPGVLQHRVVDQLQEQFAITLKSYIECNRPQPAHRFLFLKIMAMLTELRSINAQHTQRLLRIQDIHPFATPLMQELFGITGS
# Summary of the method: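 Each chemical received seven doses, the first at its MTC, then successive three-fold dilutions. Host cells: HepG2 carrying either cis (PXRE, 48 sites) or trans one-hybrid (ERRg, FXR, PPARg; 25 units) reporter libraries.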
# [4] = target: T3, AHR (aryl hydrocarbon receptor) (Homo sapiens, UniProt P35869); experiment: ATG_Ahr_CIS: Factorial reporter gene assay (multiplexed transcription reporter, HepG2); assay type: cell-based; conditions: HepG2 reporter
# T3 construct: endogenous in cells; host or cells: HepG2
# T3 sequence (P35869 11-848): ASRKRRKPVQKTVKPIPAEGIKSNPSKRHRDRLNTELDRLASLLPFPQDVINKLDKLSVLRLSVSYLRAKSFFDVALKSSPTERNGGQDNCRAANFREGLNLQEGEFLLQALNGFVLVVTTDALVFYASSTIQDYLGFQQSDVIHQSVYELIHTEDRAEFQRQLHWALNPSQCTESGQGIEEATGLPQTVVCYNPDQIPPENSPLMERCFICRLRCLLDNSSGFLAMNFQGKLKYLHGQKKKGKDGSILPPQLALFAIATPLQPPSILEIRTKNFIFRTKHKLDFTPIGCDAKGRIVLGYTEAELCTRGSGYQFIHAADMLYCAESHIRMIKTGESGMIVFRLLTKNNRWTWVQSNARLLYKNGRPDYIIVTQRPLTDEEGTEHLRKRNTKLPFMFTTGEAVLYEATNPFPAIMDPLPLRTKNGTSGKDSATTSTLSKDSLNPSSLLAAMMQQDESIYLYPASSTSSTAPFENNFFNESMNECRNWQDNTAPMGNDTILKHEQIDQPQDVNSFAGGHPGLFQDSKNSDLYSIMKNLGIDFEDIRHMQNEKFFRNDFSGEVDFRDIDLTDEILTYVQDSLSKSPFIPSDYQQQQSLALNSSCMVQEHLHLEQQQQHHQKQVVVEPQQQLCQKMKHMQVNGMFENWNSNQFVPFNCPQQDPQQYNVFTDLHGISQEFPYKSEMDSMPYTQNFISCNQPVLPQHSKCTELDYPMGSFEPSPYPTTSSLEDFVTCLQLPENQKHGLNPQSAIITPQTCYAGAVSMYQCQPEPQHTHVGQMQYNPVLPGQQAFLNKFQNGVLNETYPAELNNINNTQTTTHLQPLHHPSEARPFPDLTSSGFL
# Summary of the method: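 Seven concentrations per chemical, three-fold dilutions down from the MTC, were tested in HepG2 hepatoma cells. Those cells carried a multiple reporter transcription unit library, read either as cis transcription-factor-site reporters or as a trans mammalian one-hybrid panel for nuclear receptors.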
# CYP3A4 = experiment: CLZD_CYP3A4: Change in expression of CYP3A4 (primary human hepatocytes); assay type: cell-based; conditions: 24 hr
# Summary of the method: as §3
# LXRa (NR1H3) = target: T4, LXRa (NR1H3) (Homo sapiens, UniProt Q13133); experiment: ATG_LXRa_TRANS: Factorial reporter gene assay (HepG2); assay type: cell-based; conditions: HepG2 reporter
# T4 construct: expressed in transfected cells; host or cells: HepG2
# T4 sequence (Q13133 1-447): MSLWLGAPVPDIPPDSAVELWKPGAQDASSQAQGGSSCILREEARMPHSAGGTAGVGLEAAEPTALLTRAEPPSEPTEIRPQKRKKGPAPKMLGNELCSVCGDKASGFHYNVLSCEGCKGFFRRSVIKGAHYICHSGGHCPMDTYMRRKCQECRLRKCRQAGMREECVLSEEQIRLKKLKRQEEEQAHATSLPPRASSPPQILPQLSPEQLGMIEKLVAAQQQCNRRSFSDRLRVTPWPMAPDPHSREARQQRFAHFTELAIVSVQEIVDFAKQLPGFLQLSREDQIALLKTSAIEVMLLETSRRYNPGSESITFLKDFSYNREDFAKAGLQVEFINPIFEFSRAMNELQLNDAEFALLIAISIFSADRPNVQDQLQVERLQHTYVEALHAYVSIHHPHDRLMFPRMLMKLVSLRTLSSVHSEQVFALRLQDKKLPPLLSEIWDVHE
# Description: as §4, §5
# HMGCS2 = experiment: CLZD_HMGCS2: Change in expression of HMGCS2 (primary human hepatocytes); assay type: cell-based; conditions: 24 hr
# Description: as §1, §2
# Mouse Liver [5] = conditions: chronic study, mouse liver; ref ToxRefDB; cited from earlier work
# Mouse Liver [6] = conditions: chronic study, mouse liver; ref ToxRefDB; cited from earlier work; remark: listed apart in the source
# Mouse Liver [7] = conditions: chronic study, mouse liver; ref ToxRefDB; cited from earlier work; remark: listed apart in the source
compound,measurement,setting,value
C#CCOS(=O)OC1CCCCC1Oc1ccc(C(C)(C)C)cc1 (stereo not drawn) [r259],CLZD_ABCB1_24,ABCB1,5.227
same,CLZD_ABCB11_24,ABCB11,4.813
same,CLZD_CYP1A1_24,CYP1A1,4.821
same,CLZD_CYP1A2_24,CYP1A2,5.07
same,CLZD_CYP2B6_24,CYP2B6,5.314
same,CHR_Rat_Liver_1_AnyLesion,Rat Liver [1]; rat,0
same,CHR_Rat_Liver_2_PreneoplasticLesion,Rat Liver [2]; rat,0
same,CHR_Rat_Liver_3_NeoplasticLesion,Rat Liver [3]; rat,0
same,ATG_PBREM_CIS,CAR (NR1I3); HepG2,5.854
same,ATG_PXRE_CIS,PXR (NR1I2); HepG2,6.18
CCCN(CC)CC1COC2(CCC(C(C)(C)C)CC2)O1 (stereo not drawn) [r286],ATG_Ahr_CIS,[4],4.444
same,CLZD_CYP2B6_24,CYP2B6,4.532
same,CLZD_CYP3A4_24,CYP3A4,5.192
same,CHR_Rat_Liver_1_AnyLesion,Rat Liver [1]; rat liver,0
same,CHR_Rat_Liver_2_PreneoplasticLesion,Rat Liver [2]; rat liver,0
same,CHR_Rat_Liver_3_NeoplasticLesion,Rat Liver [3]; rat liver,0
same,ATG_PBREM_CIS,CAR (NR1I3); HepG2 reporter,4.721
same,ATG_PXRE_CIS,PXR (NR1I2); HepG2 reporter,4.886
CCOC(=O)C(C)Oc1ccc(Oc2cnc3cc(Cl)ccc3n2)cc1 (stereo not drawn) [r279],ATG_LXRa_TRANS,LXRa (NR1H3),4.824
same,CLZD_HMGCS2_24,HMGCS2,5.409
same,CHR_Mouse_Liver_1_AnyLesion,Mouse Liver [5],6
same,CHR_Mouse_Liver_2_PreneoplasticLesion,Mouse Liver [6],6
same,CHR_Mouse_Liver_3_NeoplasticLesion,Mouse Liver [7],6
same,CHR_Rat_Liver_1_AnyLesion,Rat Liver [1]; rat liver,6
same,CHR_Rat_Liver_2_PreneoplasticLesion,Rat Liver [2]; rat liver,0
same,CHR_Rat_Liver_3_NeoplasticLesion,Rat Liver [3]; rat liver,0
same,ATG_PXRE_CIS,PXR (NR1I2); HepG2 reporter,4.523
